Measurements as given in PubChem BioAssay (NCI).
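Dose response: 5 concentrations. Exposure: 48 h. Format: 96-well plates. Endpoint: linear interpolation; highest concentration if not reached. Here, GI50 denotes the concentration required for 50% inhibition of growth. Definition used: TGI = concentration required for complete inhibition of growth.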

Tests used:
Assay in all cases: inhibition of tumour cell growth, NCI panel, 48 h
M19-MEL melanoma = system: M19-MEL melanoma
KM20L2 colon = system: KM20L2 colon
XF 498 CNS = system: XF 498 CNS
SNB-78 CNS = system: SNB-78 CNS
DMS 273 small cell lung = system: DMS 273 small cell lung
HOP-18 NSCLC = system: HOP-18 NSCLC
RXF-631 renal = system: RXF-631 renal

## CCOC(=O)CC(=Nc1cc(C)on1)N(CC)CC
M19-MEL melanoma
  TGI: > 100 µM
KM20L2 colon
  TGI: > 100 µM
XF 498 CNS
  TGI: > 100 µM
SNB-78 CNS
  TGI: > 100 µM
DMS 273 small cell lung
  TGI: > 100 µM

## Cc1ccc(C(=O)NC(C)C)cc1N=NN(C)C
M19-MEL melanoma
  TGI: > 100 µM
KM20L2 colon
  TGI: > 100 µM
SNB-78 CNS
  TGI: > 100 µM
DMS 273 small cell lung
  TGI: > 100 µM

## CCc1c(-c2coc(CC/C(C)=C/c3ccccc3)n2)oc(OC)c(C)c1=O
M19-MEL melanoma
  TGI: > 100 µM
KM20L2 colon
  TGI: > 54.6 µM
XF 498 CNS
  TGI: 75.4 µM
HOP-18 NSCLC
  TGI: > 100 µM
SNB-78 CNS
  TGI: > 100 µM
DMS 273 small cell lung
  TGI: > 54.7 µM

## Nc1nc(SCc2ccccc2[N+](=O)[O-])c2[nH]cnc2n1
M19-MEL melanoma
  TGI: > 100 µM
KM20L2 colon
  TGI: > 100 µM
SNB-78 CNS
  TGI: > 100 µM
DMS 273 small cell lung
  TGI: > 100 µM

## C=CC[C@@]1(C#N)C[C@H](C[C@]2(C#N)C[C@H](CCl)OC(C)(C)O2)OC(C)(C)O1
M19-MEL melanoma
  TGI: > 100 µM
KM20L2 colon
  TGI: > 100 µM
XF 498 CNS
  TGI: > 100 µM
HOP-18 NSCLC
  TGI: > 100 µM
DMS 273 small cell lung
  TGI: > 100 µM

## [N-]=[N+]=NC(c1cn(C2CC(O)C(CO)O2)c(=O)[nH]c1=O)C(I)I (stereo unspecified)
M19-MEL melanoma
  TGI: > 100 µM
KM20L2 colon
  TGI: > 100 µM
HOP-18 NSCLC
  TGI: > 100 µM
SNB-78 CNS
  TGI: > 100 µM
DMS 273 small cell lung
  TGI: > 100 µM

## COc1ccc2c(c1)Cc1c-2[nH]c2cc3c(cc2c1=O)OCO3
M19-MEL melanoma
  TGI: 34.3 µM
KM20L2 colon
  TGI: 35 µM
XF 498 CNS
  TGI: 38.3 µM
HOP-18 NSCLC
  TGI: 58.2 µM
SNB-78 CNS
  TGI: > 100 µM
DMS 273 small cell lung
  TGI: 24.7 µM

## O=c1cc(-c2ccc[nH]2)[nH]c2cc3c(cc12)OCO3
M19-MEL melanoma
  TGI: > 100 µM
KM20L2 colon
  GI50: 20.1 µM
  TGI: 42.6 µM
XF 498 CNS
  TGI: 89.2 µM
RXF-631 renal
  TGI: > 100 µM
DMS 273 small cell lung
  TGI: > 100 µM

## CC[S+](C)c1ccc(-c2c3nc(c(-c4ccc([S+](C)CC)cc4)c4ccc([nH]4)c(-c4ccc([S+](C)CC)cc4)c4nc(c(-c5ccc([S+](C)CC)cc5)c5ccc2[nH]5)C=C4)C=C3)cc1 (stereo unspecified)
M19-MEL melanoma
  TGI: > 100 µM
KM20L2 colon
  TGI: > 100 µM
XF 498 CNS
  TGI: 8.31 µM
SNB-78 CNS
  TGI: > 100 µM
DMS 273 small cell lung
  TGI: > 100 µM

## Cc1cc(C)c(N)c(C)c1N
M19-MEL melanoma
  TGI: > 100 µM
KM20L2 colon
  TGI: > 100 µM
HOP-18 NSCLC
  TGI: > 100 µM
SNB-78 CNS
  TGI: > 100 µM
DMS 273 small cell lung
  TGI: > 100 µM
